Data published in patent US20240058283A1, “THE MODE OF ACTION OF N-MeDCPA ON TRPC CHANNELS” (West Virginia University Board of Governors on Behalf of …, priority 2022, published 2024).
Read-outs that look alike come from different tables or passages of the source.

How the values were obtained:
[1] = Ability to cross the blood brain barrier
Method: (§1) ELP-004 was evaluated for its ability to cross the blood brain barrier. […] Other medications, such as for example but not limited to bupropion are known to cause problems due to dopamine transporter binding.

[2] = target: dopamine transporter (Homo sapiens, UniProt Q01959); test: Dopamine transport
Method: as §1

[3] = tested on: Mouse splenic monocytes; test: Osteoclast resorption (pit formation) on Corning osteo-assay surface plates; type: cell-based; details: 1 ng/ml RANKL, 2 ng/ml TNFα, 50 ng/ml m-CSF; 7, 14 or 21 days; 100 nM ELP-004
Method: Mouse splenic monocytes were induced to differentiate by the addition of 1 ng/ml RANKL, 2 ng/ml TNFα and 50 ng/ml m-CSF. The panels of FIG. 6 show a representative photomicrograph of cells after 7, 14, or 21 days of culture on Corning osteo-assay surface plates with RANKL+mCSF+TNFα or with the addition of 100 nM ELP-004.

[4] = target: T1, TRPC6 (Homo sapiens, UniProt Q9Y210); test: OAG-induced Ca2+ entry in Fura2-loaded HEK293 cells expressing TRPC6; type: cell-based; details: ELP-004 0 to 1 mM for 10 minutes before OAG, FIG. 1D, read-out: IC50, inhibition of OAG-induced Ca2+ entry
T1 construct: expressed in transfected cells
T1 sequence (Q9Y210 1-931): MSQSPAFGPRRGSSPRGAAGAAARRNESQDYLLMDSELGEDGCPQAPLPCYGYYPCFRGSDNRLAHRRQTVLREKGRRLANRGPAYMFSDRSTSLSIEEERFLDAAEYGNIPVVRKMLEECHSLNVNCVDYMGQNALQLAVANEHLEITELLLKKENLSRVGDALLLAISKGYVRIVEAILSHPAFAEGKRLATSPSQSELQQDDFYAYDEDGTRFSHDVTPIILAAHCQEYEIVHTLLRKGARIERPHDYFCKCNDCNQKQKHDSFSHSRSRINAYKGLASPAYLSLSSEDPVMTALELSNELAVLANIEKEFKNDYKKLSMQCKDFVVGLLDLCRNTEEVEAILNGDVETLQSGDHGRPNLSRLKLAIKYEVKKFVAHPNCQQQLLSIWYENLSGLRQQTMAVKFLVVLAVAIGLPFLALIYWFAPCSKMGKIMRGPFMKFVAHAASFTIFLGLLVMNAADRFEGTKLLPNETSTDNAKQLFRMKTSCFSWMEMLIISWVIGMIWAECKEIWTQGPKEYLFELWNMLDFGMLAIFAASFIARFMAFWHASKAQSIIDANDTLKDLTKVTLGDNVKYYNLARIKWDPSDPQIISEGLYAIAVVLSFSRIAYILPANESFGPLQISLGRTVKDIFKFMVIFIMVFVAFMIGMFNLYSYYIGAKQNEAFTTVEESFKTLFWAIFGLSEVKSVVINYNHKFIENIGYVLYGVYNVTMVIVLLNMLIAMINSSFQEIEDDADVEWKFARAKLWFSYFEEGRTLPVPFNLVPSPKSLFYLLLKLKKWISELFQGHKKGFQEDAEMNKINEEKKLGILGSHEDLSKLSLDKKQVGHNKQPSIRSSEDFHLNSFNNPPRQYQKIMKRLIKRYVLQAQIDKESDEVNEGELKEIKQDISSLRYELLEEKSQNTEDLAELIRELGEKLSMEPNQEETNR
Method: Inhibition of DAG-mediated TRPC activation. To determine if ELP-004 (N-MeDCPA) inhibits DAG-induced TRPC activation, HEK293 cells expressing TRPC3, TRPC6 or TRPC7 were loaded with Fura2 and incubated with ELP-004 (0 to 1 mM) for 10 minutes prior to challenging with 1-Oleoyl-2-acetyl-sn-glycerol (OAG), a membrane permeable form of diacylglycerol.
Cell Culture—HEK293 cells were grown in DMEM with 4.5 g/L glucose supplemented with 10% FBS and 1% Gentamycin (Full DMEM media; Thermo-Fisher Scientific, Waltham, MA) at 37° C. and 5% CO2. […]
TRPC activity assay—Cells grown on glass coverslips were incubated in a cation-safe buffer (107 mM NaCl, 7.2 mM KCl, 1.2 mM MgCl2, 11.5 mM Glucose, 20 mM HEPES-NaOH, 1 mM CaCl2), pH 7.2) and loaded with Fura2-acetoxymethylester (Fura2-AM; 2 μM) for 30 min at 24° C. as previously described^10,11. […] Ca^2+/Sr^2+ measurements were taken using a Leica DMI 6000B fluorescence microscope controlled by Slidebook software (Intelligent Imaging Innovations, Denver, CO). Fluorescence emission at 505 nm was monitored in response to excitation at alternating 340 nm and 380 nm wavelengths at a frequency of 0.67 Hz; intracellular Ca^2+ measurements are shown at 340/380 nm ratios obtained from groups of 35-45 single cells.

[5] = tested on: Jurkat cells; type: cell-based; design: dose or concentration left out as unconfirmed; details: human
Method: ELP-004 (N-MeDCPA) was specifically developed to preclude metabolizing to two toxic metabolites, N—OH-dichloroaniline and 6-OH-dichloroaniline. In vitro assays for toxicity caused by ELP-004 using Jurkat cells show 50% toxicity at […] and <2% toxicity at […]. […] Thus, ELP-004 has high potential for use as a drug to prevent or reduce bone erosion.

[6] = Elimination after administration per os; type: in vivo; details: administered per os

Sequence of dopamine transporter (Q01959 whole entry): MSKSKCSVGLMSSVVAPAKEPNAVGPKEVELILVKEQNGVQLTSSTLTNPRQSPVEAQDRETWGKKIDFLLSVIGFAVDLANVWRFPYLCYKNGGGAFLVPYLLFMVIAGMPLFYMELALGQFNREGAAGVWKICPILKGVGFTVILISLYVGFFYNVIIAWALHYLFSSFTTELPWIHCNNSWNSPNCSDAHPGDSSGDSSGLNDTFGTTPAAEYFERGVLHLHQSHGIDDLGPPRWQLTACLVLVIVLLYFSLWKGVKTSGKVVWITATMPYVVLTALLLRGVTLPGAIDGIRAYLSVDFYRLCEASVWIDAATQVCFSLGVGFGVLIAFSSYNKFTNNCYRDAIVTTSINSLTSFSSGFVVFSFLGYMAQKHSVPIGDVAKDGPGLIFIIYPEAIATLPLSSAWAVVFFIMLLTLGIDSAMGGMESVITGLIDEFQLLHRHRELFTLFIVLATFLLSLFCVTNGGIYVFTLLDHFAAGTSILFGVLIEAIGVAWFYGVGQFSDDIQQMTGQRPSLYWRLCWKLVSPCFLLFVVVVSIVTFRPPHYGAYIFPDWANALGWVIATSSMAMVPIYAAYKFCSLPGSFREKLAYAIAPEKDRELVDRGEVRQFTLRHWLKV

SMILES: CCC(=O)N(C)c1ccc(Cl)c(Cl)c1 [ELP-004, N-(3,4-dichlorophenyl)-N-methylpropanamide]
- crossing of the blood brain barrier [1]: does not cross the blood brain barrier
- problems with dopamine transport [2]: does not cause problems with dopamine transport
- pit formation (osteoclast resorption) [3]: inhibited pit formation
- IC50 [4]: 1000 to 2000 nM
- toxicity [5]; 200: < 2%
- toxicity [5]; 800: 50%
- time until essentially eliminated [6]: ≤ 4 h
